Like-named read-outs stand apart in the source and are kept apart here.
What was measured:
DabiOBP5 = target: T1, DabiOBP5 (Dioryctria abietella, UniProt A0A8E6HS34); assay: Competitive fluorescence binding assay with 1-NPN probe, recombinant DabiOBP5; details: for inhibition at 20 µM / OBP5 F.D. (%) fluorescence displacement percent: ligand at 20 μM, DabiOBP5/1-NPN each 2 μM, Tris-HCl pH 7.4, NB = no binding; for inhibition at 20 µM: read-out: OBP5 F.D. (%) fluorescence displacement percent; for Ki: competitive displacement of 1-NPN, three replicates, mean ± SE, read-out: OBP5 Ki (dissociation constant)
T1 sequence (A0A8E6HS34 19-139): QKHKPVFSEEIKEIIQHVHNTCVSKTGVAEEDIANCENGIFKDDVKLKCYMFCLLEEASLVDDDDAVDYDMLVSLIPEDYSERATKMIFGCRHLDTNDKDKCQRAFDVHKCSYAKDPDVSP
Text: In the binding assays, we selected 100 compounds derived from host/non-host plants and man-made insecticides widely used for the control of lepidopteran pests, representing 88 general odorants (21 esters, 21 alcohols, 14 aldehydes, 13 alkenes, seven ketones, 11 alkanes and one acid) and 12 insecticides. These compounds and N-phenyl-1-naphthylamine (1-NPN) were purchased from Aladdin and Sigma-Aldrich, with the highest available purity. […] The concentrations of the work solution for each ligand and 1-NPN were set at 1 mM.
In order to measure the binding properties of the DabiOBPs to the 100 ligands, competitive binding assays were performed on a RF5301PC fluorescence spectrophotometer (Shimadzu, Japan). The concentrations of DabiOBPs and the fluorescent probe 1-NPN were set at 2 μM. […] Accordingly, binding constants (K1-NPN) of the DabiOBPs and 1-NPN were calculated using GraphPad Prism 7 (GraphPad Software Inc., San Diego, CA). […] For the ligands replacing over a half of 1-NPN fluorescence (50%) at 20 μM, three replicates were performed. The excitation wavelength was set at 337 nm and the emission peaks were recorded at around 400 nm.

DabiOBP14 = format: binding, Dioryctria abietella; details: for Ki: competitive displacement of 1-NPN, three replicates, mean ± SE, read-out: OBP14 Ki (dissociation constant)
Protocol: In the binding assays, we selected 100 compounds derived from host/non-host plants and man-made insecticides widely used for the control of lepidopteran pests, representing 88 general odorants (21 esters, 21 alcohols, 14 aldehydes, 13 alkenes, seven ketones, 11 alkanes and one acid) and 12 insecticides. These compounds and N-phenyl-1-naphthylamine (1-NPN) were purchased from Aladdin and Sigma-Aldrich, with the highest available purity. They were first diluted into 100 mM, using methanol (HPLC purity grade, ≥99.9%) as a stock solution. The concentrations of the work solution for each ligand and 1-NPN were set at 1 mM.
In order to measure the binding properties of the DabiOBPs to the 100 ligands, competitive binding assays were performed on a RF5301PC fluorescence spectrophotometer (Shimadzu, Japan). The concentrations of DabiOBPs and the fluorescent probe 1-NPN were set at 2 μM. The binding of DabiOBPs to 1-NPN in 20 mM Tris-HCl buffer (pH 7.4) was measured by adding final concentrations of 2–16 μM 1-NPN. Accordingly, binding constants (K1-NPN) of the DabiOBPs and 1-NPN were calculated using GraphPad Prism 7 (GraphPad Software Inc., San Diego, CA). The binding of the DabiOBPs to various ligands was conducted by adding different concentrations of ligands (2, 4, 6, 8, 12, 16 and 20 μM) into the DabiOBP5/1-NPN (each 2 μM) or DabiOBP14/1-NPN (each 2 μM) mixtures. For the ligands replacing over a half of 1-NPN fluorescence (50%) at 20 μM, three replicates were performed. The excitation wavelength was set at 337 nm and the emission peaks were recorded at around 400 nm. The dissociation constants (Ki) of the tested ligands to DabiOBPs were computed, using the equation: Ki = [IC50]/(1 + [1-NPN]/K1-NPN), where [1-NPN] was the free concentration of 1-NPN and IC50 was the concentration of ligands replacing 50% of 1-NPN fluorescence.

[1] = ligand at 20 μM, DabiOBP14/1-NPN each 2 μM, Tris-HCl pH 7.4, NB = no binding

CC(C)=CCC/C(C)=C/CC/C(C)=C/CC/C=C(\C)CC/C=C(\C)CCC=C(C)C [Squalene]
inhibition at 20 µM (DabiOBP5): 32.3%
OBP14 F.D. (%) fluorescence displacement percent (DabiOBP14; [1]): 24.81%

COc1cc(C=O)cc(OC)c1O [Syringaldehyde]
inhibition at 20 µM (DabiOBP5): 38.5%
OBP14 F.D. (%) fluorescence displacement percent (DabiOBP14; [1]): 34.32%

CCCCCCCCCCCCCC [Tetradecane]
inhibition at 20 µM (DabiOBP5): 25%
OBP14 F.D. (%) fluorescence displacement percent (DabiOBP14; [1]): 27.13%

CCCCCCCCCCCCCCCCCCCCCCC [Tricosane]
inhibition at 20 µM (DabiOBP5): 32.8%
OBP14 F.D. (%) fluorescence displacement percent (DabiOBP14; [1]): 27.90%

CCCCCCCCCCC=O [Undecanal]
inhibition at 20 µM (DabiOBP5): 27.8%
OBP14 F.D. (%) fluorescence displacement percent (DabiOBP14; [1]): 35.28%

CCCCCCCCCCC [Undecane]
inhibition at 20 µM (DabiOBP5): 4.42%
OBP14 F.D. (%) fluorescence displacement percent (DabiOBP14; [1]): 6.47%

CCC/C=C\C=O [Z2-Hexenal]
OBP5 F.D. (%) fluorescence displacement percent (DabiOBP5): 39.42%
OBP14 F.D. (%) fluorescence displacement percent (DabiOBP14; [1]): 33.09%

CC/C=C\CCO [Z3-Hexen-1-ol]
OBP5 F.D. (%) fluorescence displacement percent (DabiOBP5): 28.57%
OBP14 F.D. (%) fluorescence displacement percent (DabiOBP14; [1]): 24.52%

CC/C=C\CCOC(C)=O [Z3-Hexenyl acetate]
OBP5 F.D. (%) fluorescence displacement percent (DabiOBP5): 27.72%
OBP14 F.D. (%) fluorescence displacement percent (DabiOBP14; [1]): 31.25%

CC/C=C\CCOC(=O)CCC [Z3-Hexenyl butyrate]
OBP5 F.D. (%) fluorescence displacement percent (DabiOBP5): 20.80%
OBP14 F.D. (%) fluorescence displacement percent (DabiOBP14; pH 7.4): 26.39%

CC1=CC[C@H](C(C)C)C=C1 [α-Phellandrene]
inhibition at 20 µM (DabiOBP5): 37.4%
OBP14 F.D. (%) fluorescence displacement percent (DabiOBP14; [1]): 36.07%

CC1=CCC2CC1C2(C)C (stereo not drawn) [α-Pinene]
inhibition at 20 µM (DabiOBP5): 25.1%
OBP14 F.D. (%) fluorescence displacement percent (DabiOBP14; [1]): 29.24%

CC1=CC=C(C(C)C)CC1 [α-Terpinene]
inhibition at 20 µM (DabiOBP5): 35.1%
OBP14 F.D. (%) fluorescence displacement percent (DabiOBP14; [1]): 27.93%

CC1=CC[C@@H](C(C)(C)O)CC1 [α-Terpineol]
inhibition at 20 µM (DabiOBP5): 33.9%
OBP14 F.D. (%) fluorescence displacement percent (DabiOBP14; [1]): 30.28%

CC1=C(C=O)C(C)(C)CCC1 [β-Cyclocitral]
OBP5 F.D. (%) fluorescence displacement percent (DabiOBP5): 32.90%
OBP14 F.D. (%) fluorescence displacement percent (DabiOBP14; [1]): 32.77%

CC(=O)/C=C/C1=C(C)CCCC1(C)C [β-Ionone]
Ki (DabiOBP5; listed as β-ionone): < 13 µM
Ki (DabiOBP5): 9.11 ± 1.03 µM
inhibition at 20 µM (DabiOBP5): 59.5%
Ki (DabiOBP14; listed as β-ionone): < 13 µM
Ki (DabiOBP14): 8.39 ± 1.04 µM
OBP14 F.D. (%) fluorescence displacement percent (DabiOBP14; [1]): 62.86%

CC1=CCC(C(C)C)=CC1 [γ-Terpinene]
inhibition at 20 µM (DabiOBP5): 28.2%
OBP14 F.D. (%) fluorescence displacement percent (DabiOBP14; [1]): 24.46%

Abamectin
OBP5 F.D. (%) fluorescence displacement percent (DabiOBP5): 24.16%
OBP14 F.D. (%) fluorescence displacement percent (DabiOBP14; [1]): 4.33%

Farnesene
OBP5 F.D. (%) fluorescence displacement percent (DabiOBP5): 40.68%
OBP14 F.D. (%) fluorescence displacement percent (DabiOBP14; [1]): 17.77%
